EC50 and melting point data for four compounds are collected here from patent US9403835B2, “Tetraaza-cyclopenta[a]indenyl and their use as positive allosteric modulators” (Merck Patent GmbH, priority 2011, dated 2016).

Data set [1] addresses T1, muscarinic M1 receptor (Homo sapiens, UniProt P11229).
T1 construct: expressed in transfected cells; host or cells: CHO (M1-CHO cells)
T1 sequence (P11229 1-460): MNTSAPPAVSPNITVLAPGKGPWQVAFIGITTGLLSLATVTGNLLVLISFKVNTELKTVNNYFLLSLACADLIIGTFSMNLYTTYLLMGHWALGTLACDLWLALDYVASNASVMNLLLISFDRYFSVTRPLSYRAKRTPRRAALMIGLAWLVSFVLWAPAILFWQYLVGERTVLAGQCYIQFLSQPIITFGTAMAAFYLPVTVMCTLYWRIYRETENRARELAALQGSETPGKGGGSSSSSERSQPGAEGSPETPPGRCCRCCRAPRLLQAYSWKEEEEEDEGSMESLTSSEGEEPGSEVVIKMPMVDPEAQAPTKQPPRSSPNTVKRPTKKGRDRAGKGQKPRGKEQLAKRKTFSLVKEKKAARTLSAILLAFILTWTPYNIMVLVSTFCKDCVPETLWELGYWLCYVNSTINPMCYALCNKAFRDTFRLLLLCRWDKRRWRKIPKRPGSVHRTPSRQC
Description: M1 PAM Assay (IP-One HTRF, IP1 in M1-CHO cells with EC20 of acetylcholine). The data set is classed as cell-based. The conditions noted are these: 1 hour at room temperature, IP1 readout. As to the method: M1-CHO cells are plated in culture medium (HAM's F12, P/S, 10% FCS) on the day before the experiment with 10 000 cells/well in a 384 well plate (3750 Corning White 384 w plate with lid). On the day of experiment, cells are washed with PBS and IPone buffer is added (glucose 5.5 mM, NaCl 146 mM, MgCl2 0.5 mM, HEPES 10 mM, LiCl 50 mM, CaCl2 1 mM, KCl 4.2 mM). Then diluted compounds (1% DMSO final concentration) are added together with EC20 of acetylcholine and incubated with the cells for 1 hour at room temperature. The intracellular concentration of IP1 is then measured using the IP-One HTRF assay from Cisbio.
A general note: TR-FRET usually uses a lanthanide donor and a delayed reading to cut background.

Each structure is given as a SMILES string.

For the compound `CCOc1c(F)cc(F)cc1C(=O)N1Cc2nn3c(C)c(Cl)c(C)nc3c2C1` [Example 28, (6-chloro-5,7-dimethyl-1H,3H-2,4,7a,8-tetraaza-cyclopenta[a]inden-2-yl)-(2-ethoxy-3,5-difluoro-phenyl)-methanone], the melting point (usually the temperature, or range, at which the solid turns liquid) lay within 153 to 155 °C. In addition, the EC50 – broadly, the midpoint of the concentration-response curve – in data set [1] is 1 to 2 µM.

Compound `CCOc1ccccc1C(=O)N1Cc2nn3c(C)c(Cl)c(C)nc3c2C1` [Example 10] showed a melting point of 164 to 167 °C. For the same compound, the EC50 in data set [1] fell in the range of 0.2 to 1 µM.

For `Cc1nc2c3c(nn2c(C)c1Cl)CN(C(=O)c1ccccc1OC(F)(F)F)C3` [Example 14, (6-chloro-5,7-dimethyl-1H,3H-2,4,7a,8-tetraaza-cyclopenta[a]inden-2-yl)-(2-trifluoromethoxy-phenyl)-methanone], the melting point fell in the range of 179 to 181 °C. In data set [1], this compound returned an EC50 of 0.2 to 1 µM.

`CSCCOc1ccccc1C(=O)N1Cc2nn3c(C)c(Cl)c(C)nc3c2C1` [Example 15, (6-chloro-5,7-dimethyl-1H,3H-2,4,7a,8-tetraaza-cyclopenta[a]inden-2-yl)-[2-(2-methylsulfanyl-ethoxy)-phenyl]-methanone]: the melting point lay in the range of 183 to 185 °C. The compound further returned an EC50 in data set [1] of 0.2 to 1 µM.
